Measurements from PMC11054303, “Design and Synthesis of Novel N-Benzylidene Derivatives of 3-Amino-4-imino-3,5-dihydro-4H-chromeno[2,3-d]pyrimidine under Microwave, In Silico ADME Predictions, In Vitro Antitumoral Activities and In Vivo Toxicity” (Pharmaceuticals, 2024).

Key:
T47D breast cancer cells = test system: T47D breast cancer cells; set-up: method as in PMID 15542776; conditions: cited from earlier work
Huh7 D12 = experiment: Antiproliferative assay, Huh7 D12; assay type: cell-based, human; conditions: for IC50: Homo sapiens, Huh-7D12, 48 h incubation, average of three assays, standard error ± 0.5 μM
Experimental: (§1) The potential antiproliferative activity of these novel 3-(N-phenylmethyliden)amino-4-imino-3,5-dihydro-4H-chromeno[2,3-d]pyrimidine 10(a-i) and 10-(N-phenylmethyliden)amino-11-imino-11H-naphto[1′,2′:5,6]pyrano[2,3-d]pyrimidine 10(j-l) was evaluated in a panel of eight tumoral cell lines and in diploid skin fibroblasts used as normal cell lines for control. For these antitumor assays, chosen cell lines represent diverse types of human cancer, which are, respectively, human hepatocellular carcinoma (Huh7 D12), human colon adenocarcinoma (Caco2), human breast adenocarcinoma (MDA-MB231), MDA-MB468 for human breast carcinoma which correspond to the Triple Negative Breast Cancer (TNBC), human colon carcinoma (HCT116), PC3 as cell line initiated from bone metastasis of grade IV prostatic adenocarcinoma from a person, MCF7 as breast cancer line isolated from a person and PANC1, as human pancreatic cancer cell line. The potential antiproliferative activity was preliminarily evaluated in vitro at a 25 μM single dose.
(§2) The IC50 was calculated from the full dose-response curve and used as a parameter for the antiproliferative activity of the new compounds.
(§3) Skin diploid fibroblastic cells were provided by BIOPREDIC International Company (Rennes, France). Huh-7D12 (Ref ECACC: 01042712), Caco2 (Ref ECACC: 86010202), MDA-MB-231 (Ref ECACC: 92020424), MDA-MB-468, HCT-116 (Ref ECACC: 91091005), PC3 (Ref ECACC: 90112714), and MCF7 cell lines were obtained from the ECACC collection. PANC1 cell lines, a generous gift of LBAI Inserm 1227 (Brest, France). Cells were grown according to ECACC recommendations in DMEM for Huh-D12, MDA-MB-231, MDA-MB-468 and fibroblast, in EMEM for Caco2, in McCoy’s for HCT-116 and RPMI for PC3 at 37 °C and 5% CO2. All culture media with 10% of FBS, 1% of penicillin-streptomycin and 2 mM glutamine.
(§4) Chemicals were solubilized in DMSO at a concentration of 10 mM (stock solution) and diluted in a culture medium to the desired final concentrations. […] The toxicity test of the chemicals on these cells was as follows: 2 × 10^3 cells for HCT-116 cells or 4 × 10^3 for the other cells were seeded in 96-multi-well plates in triplicate and left for 24 h for attachment, spreading and growing. Then, cells were exposed for 48 h to increasing concentrations of chemicals, ranging from 0.1 μM to 25 μM, in a final volume of 120 μL of culture medium. After 48 h of treatment, cells were washed in PBS and fixed in a cooled 90% ethanol/5% acetic acid solution for 20 min. The nuclei were stained with Hoechst 3342 (B2261 Merck Sigma-Aldrich) and counted. Image acquisition and analysis were performed using automated imaging analysis with a Cellomics Arrayscan VTI/HCS Reader (Thermo/Scientific, Waltham, MA, USA). The survival percentages were calculated as the percentage of cell number after chemical treatment over cell number after DMSO treatment. The IC50 was graphically determined.

Caco2 = experiment: Antiproliferative assay, Caco2; assay type: cell-based, human; conditions: Homo sapiens, Caco-2; 48 h incubation; average of three assays, standard error ± 0.5 μM
Experimental: as §1, §2, §3, §4

MDA MB231 = experiment: Antiproliferative assay, MDA MB231; assay type: cell-based, human; conditions: for IC50: Homo sapiens, MDA-MB-231, 48 h incubation, average of three assays, standard error ± 0.5 μM
Experimental: as §1, §2, §3, §4

MDA MB468 = experiment: Antiproliferative assay, MDA MB468; assay type: cell-based, human; conditions: for IC50: Homo sapiens, MDA-MB-468, 48 h incubation, average of three assays, standard error ± 0.5 μM
Experimental: as §1, §2, §3, §4

HCT 116 = experiment: Antiproliferative assay, HCT 116; assay type: cell-based, human; conditions: for IC50: Homo sapiens, HCT-116, 48 h incubation, average of three assays, standard error ± 0.5 μM; for Selectivity Index (SI) HCT 116: SI = IC50 fibroblasts/IC50 on HCT 116
Experimental: as §1, §2, §3, §4

PC3 = experiment: Antiproliferative assay, PC3; assay type: cell-based, human; conditions: for IC50: Homo sapiens, PC-3, 48 h incubation, average of three assays, standard error ± 0.5 μM
Experimental: as §1, §2, §3, §4

MCF7 = experiment: Antiproliferative assay, MCF7; assay type: cell-based, human; conditions: for IC50: Homo sapiens, MCF7, 48 h incubation, average of three assays, standard error ± 0.5 μM
Experimental: as §1, §2, §3, §4

PANC1 = experiment: Antiproliferative assay, PANC1; assay type: cell-based, human; conditions: Homo sapiens, PANC-1; 48 h incubation; average of three assays, standard error ± 0.5 μM
Experimental: as §1, §2, §3, §4

Fibroblasts = experiment: Antiproliferative assay, diploid skin fibroblasts (normal cells); assay type: cell-based; conditions: Fibroblast; 48 h incubation; average of three assays, standard error ± 0.5 μM
Experimental: as §1, §2, §3, §4

tumor cell lines = experiment: Antiproliferative assay, panel of tumoral cell lines; assay type: cell-based; conditions: Homo sapiens, 48 h, summary over tumoral cell lines of Table 3, 48 h; read-out: IC50 on tumor cell lines (span over the panel)
Experimental: as §1, §2, §3, §4

[1] = Antiproliferative assay, Caco2; assay type: cell-based, human; conditions: human, Caco-2; SI = IC50 fibroblasts/IC50 on Caco2; read-out: Selectivity Index (SI) Caco2
Experimental: as §1, §2, §3, §4

[2] = test system: zebrafish Danio rerio embryos; experiment: Angiogenesis of vessels in mCherry transgenic zebrafish embryos; assay type: in vivo; conditions: 1.67 μM, 72 hpf
Excerpt: Another interest of zebrafish Danio rerio is the possibility to deeply evaluate the effects of angiogenic compounds. In our model, the formation of most vessels is complete, the circulation is present, and the heart is beating after 28 hpf of development. Angiogenesis begins in the somites and in the anterior portion of the embryos. Many zebrafish blood vessels form by angiogenic sprouting and appear to require the same proteins required for blood vessel growth in mammals. By using the mCherry line transgenic zebrafish, it is possible to analyze the direct effect of a compound on the angiogenesis of dorsal vessels. Zebrafish embryos can survive up to a week without an intact circulatory system because defective vessel formation has no immediate lethal effect.
These experiments were performed in four technical replicates.

[3] = test system: zebrafish Danio rerio embryos; conditions: transgenic line Tg(kdrl:Hsa.HRAS-mCherry)s896, zebrafish (Danio rerio), in vivo, 72 hpf, 1.67 μM
Experimental: (§5) Fertilized eggs at 24–48 h post-fertilization (hpf) were selected and transferred to a 96-well plate (1 embryo/well). […] DMSO (0.6%) was used as vehicle control for the test compounds. The exposure duration continued up to 72 hpf because it is the endpoint of embryonic development [41]. The dead embryos were eliminated, and the fertilized eggs were imaged at 0, 24, 48 and 72 hpf.
(§6) Eggs were collected 2 h post-fertilization (hpf) and kept in glass Petri dishes containing water for subsequent examination under a binocular microscope to confirm fertilization. […] Chemical treatments were performed by adding DMSO alone (negative control), or test molecule. These experiments were performed in four technical replicates.
(§7) The experiments were performed using a Zeiss inverted fluorescent microscope (Observer Z1). The zebrafish toxicological test (Zebratox) was realized as follows: the 24 h post-fertilization embryos were arrayed by hand with one embryo per well in black-walled 96-well microplates for fluorescence assays (Perkin Elmer, Waltham, MA, USA). The embryos were treated before hatching from 0 to 72 h post-fertilization. The 20 mM DMSO stock chemicals were diluted in fish water and added to the wells at final concentrations from 0.0 2µM to 5 μM. The negative control (0.25% DMSO) was added to each replicate plate. The experiments were realized in triplicate in three independent plates. […] The zebrafish fertilized eggs were provided by the ImPACcell-Biosit Zebrafish facilities (Rennes, France).

[4] = test system: zebrafish Danio rerio embryos; experiment: Zebrafish embryo toxicity assay (Zebratox, FET); conditions: low doses
Experimental: as §5, §6, §7

Compound | IC50 (Huh7 D12) [µM] | IC50 (Caco2) [µM] | IC50 (MDA MB231) [µM] | IC50 (MDA MB468) [µM] | IC50 (HCT 116) [µM] | Selectivity Index (SI) HCT 116 (HCT 116) | IC50 (PC3) [µM] | IC50 (MCF7) [µM] | IC50 (Fibroblasts) [µM] | IC50 (tumor cell lines) [µM] | melting point [°C] | also measured
2-amino-4-(3-bromo-4,5-dimethoxyphenyl)-4H-chromene-3-carbonitrile [MX 58151] |  |  |  |  |  |  |  |  |  |  |  | GI50 (T47D breast cancer cells): 0.037 µM
N=c1c2c(ncn1/N=C/c1ccccc1)Oc1ccccc1C2 [10f, (3E) 3-N-(Phenylmethylidene)amino-4-imino-3,5-dihydro-4H-chromeno[2,3-d]pyrimidine] | > 25 | > 25 | > 25 | > 25 | 10 | > 2.5 | > 25 | > 25 | > 25 | > 25 | 232 to 234 | IC50 (PANC1): > 25 µM
COc1cccc2c1Oc1ncn(/N=C/c3ccccc3)c(=N)c1C2 [10i, (3E) 3-N-(Phenylmethylidene)amino-4-imino-9-methoxy-3,5-dihydro-4H-chromeno[2,3-d]pyrimidine] | 0.49 | 0.8 | 0.6 | 0.3 | 0.62 | > 40.3 | 0.77 | 0.45 | > 25 |  | 252 to 254 | Selectivity Index (SI) Huh7 D12 (Huh7 D12; SI = IC50 fibroblasts/IC50 on Huh7 D12): > 51.0; selectivity ratio at 48 h [1]: > 31.3; Selectivity Index (SI) MDA MB231 (MDA MB231; SI = IC50 fibroblasts/IC50 on MDA MB231): > 41.7; Selectivity Index (SI) MDA MB468 (MDA MB468; SI = IC50 fibroblasts/IC50 on MDA MB468): > 83.3; Selectivity Index (SI) PC3 (PC3; SI = IC50 fibroblasts/IC50 on PC3): > 32.5; Selectivity Index (SI) MCF7 (MCF7; SI = IC50 fibroblasts/IC50 on MCF7): > 55.6
N=c1c2c(ncn1/N=C/c1ccccc1)Oc1ccc3ccccc3c1C2 [10l, (10E) 10-N-(Phenylmethylidene)amino-11-imino-11H-naphto[1′,2′:5,6]pyrano[2,3-d]pyrimidine] | > 25 | > 25 | > 25 | > 25 | > 25 |  | > 25 | > 25 | > 25 | > 25 | ≥ 260 | 
CNC(=O)c1cc(Oc2ccc(NC(=O)Nc3ccc(Cl)c(C(F)(F)F)c3)cc2)ccn1 [sorafenib, reference compound] |  |  |  |  |  |  |  |  |  |  |  | effect on angiogenesis of the vessels [2]: absence of angiogenesis of the vessels; effect on angiogenesis of the vessels ([2]; listed as Sorafenib): inhibition of the dorsal vessel vascularization; toxicity, fraction of the embryos [3]: 4/5; development of the embryos ([4]; 24 hpf): normal development; morphological development of the embryos ([4]; 48 hpf): morphological development is delayed
